Results published in PubChem BioAssay AID192 (DTP/NCI, 2004).
Several values for one entry are separate records, joined by “and”; a condition that tells them apart may be missing. Equal entries are not always repeated. Inconclusive results and toxic doses are left out. Rule for the calls: active = survival T/C of 150% or more; inactive = T/C below 125% in these data. Square brackets hold non-standard residues; d marks the D form. Peptide text beside a SMILES is read from it. * marks the point of attachment. ξ: configuration not given here. Cbz = O=C(OCc1ccccc1)*; ξI = CCC(C)C(N)C(=O)O

System: BDF1 mice, B16 melanoma ip, median survival T/C
Assay: NCI In Vivo Anticancer Drug Screen. Data for tumor model B16 Melanoma (intraperitoneal) in B6D2F1 (BDF1) mice
Conditions: endpoint: median survival time, higher = longer survival
Summary of the method: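 In this screen, activity was judged from survival or tumor size in treated versus vehicle-treated tumor-bearing mice, reported as T/C.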

[1] = dose: 100.0 mg/kg/injection, schedule: Q01DX009 (ip), vehicle: Klucel (hydroxypropylcellulose) (HPC)
[2] = dose: 100.0 mg/kg/injection, schedule: Q04DX003 (ip), vehicle: saline
[3] = dose: 200.0 mg/kg/injection, schedule: Q01DX009 (ip), vehicle: Klucel (hydroxypropylcellulose) (HPC)
[4] = dose: 200.0 mg/kg/injection, schedule: Q04DX003 (ip), vehicle: saline
[5] = dose: 400.0 mg/kg/injection, schedule: Q01DX009 (ip), vehicle: Klucel (hydroxypropylcellulose) (HPC)
[6] = dose: 6.25 mg/kg/injection, schedule: Q01DX009 (ip), vehicle: saline
[7] = dose: 5.0 mg/kg/injection, schedule: Q01DX009 (ip), vehicle: saline with Tween-80
[8] = dose: 10.0 mg/kg/injection, schedule: Q01DX009 (ip), vehicle: saline with Tween-80
[9] = dose: 50.0 mg/kg/injection, schedule: Q01DX009 (ip), vehicle: Klucel (hydroxypropylcellulose) (HPC)
[10] = dose: 100.0 mg/kg/injection, schedule: Q04DX003 (ip), vehicle: Klucel (hydroxypropylcellulose) (HPC)
[11] = dose: 200.0 mg/kg/injection, schedule: Q04DX003 (ip), vehicle: Klucel (hydroxypropylcellulose) (HPC)
[12] = dose: 50.0 mg/kg/injection, schedule: Q01DX009 (ip), vehicle: saline with Tween-80
[13] = dose: 100.0 mg/kg/injection, schedule: Q01DX009 (ip), vehicle: saline with Tween-80
[14] = dose: 200.0 mg/kg/injection, schedule: Q01DX009 (ip), vehicle: saline with Tween-80
[15] = dose: 400.0 mg/kg/injection, schedule: Q01DX009 (ip), vehicle: saline with Tween-80
[16] = dose: 25.0 mg/kg/injection, schedule: Q01DX009 (ip), vehicle: saline with Tween-80
[17] = dose: 12.5 mg/kg/injection, schedule: Q01DX009 (ip), vehicle: saline with Tween-80
[18] = dose: 12.5 mg/kg/injection, schedule: Q01DX009 (ip), vehicle: saline
[19] = dose: 25.0 mg/kg/injection, schedule: Q01DX009 (ip), vehicle: saline
[20] = dose: 50.0 mg/kg/injection, schedule: Q01DX009 (ip), vehicle: saline
[21] = dose: 100.0 mg/kg/injection, schedule: Q01DX009 (ip), vehicle: saline
[22] = dose: 20.0 mg/kg/injection, schedule: Q01DX009 (ip), vehicle: saline with Tween-80

Measured: T/C

CC1C=CCC(C)(C)C1 (stereo not given)
inactive: dose: 50.0 mg/kg/injection, schedule: Q01DX009 (ip), vehicle: other 96 % of control | [1] 111 % of control | dose: 100.0 mg/kg/injection, schedule: Q01DX009 (ip), vehicle: other 92 % of control | [2] 88 % of control | [3] 104 % of control | [4] 97 % of control | [5] 105 % of control | dose: 400.0 mg/kg/injection, schedule: Q04DX003 (ip), vehicle: saline 90 % of control

Cc1ccc2c(ccc(/C=C\c3cc(C)c4cccnc4c3O)[n+]2C)c1
inactive: dose: 1.56 mg/kg/injection, schedule: Q01DX009 (ip), vehicle: saline 95 % of control | dose: 3.13 mg/kg/injection, schedule: Q01DX009 (ip), vehicle: saline 95 % of control | [6] 91 % of control

COC(=O)C12Oc3ccc(-c4ccc5c(c4O)C(=O)C4=CCC(C)C(O)C4(C(=O)OC)O5)c(O)c3C(=O)C1=CCC(C)C2O (stereo not given)
inactive: dose: 2.5 mg/kg/injection, schedule: Q01DX009 (ip), vehicle: saline with Tween-80 97 % of control | [7] 86 % of control and 98 % of control | [8] 88 % of control and 98 % of control

Cc1cc(OC(=O)Nc2cccc(Cl)c2)ccc1[N+](=O)[O-]
inactive: [9] 93 % of control | dose: 50.0 mg/kg/injection, schedule: Q04DX003 (ip), vehicle: Klucel (hydroxypropylcellulose) (HPC) 100 % of control | [1] 86 % of control | [10] 100 % of control | [11] 107 % of control

CCC(C)C(NC(=O)CNC(=O)CNC(=O)OCc1ccccc1)C(=O)O (stereo not drawn) (Cbz-Gly-Gly-[ξI]-OH)
inactive: [12] 94 % of control | [13] 92 % of control | [14] 91 % of control | [15] 86 % of control

O=C(COc1ccc(Cl)cc1Cl)Nc1ccc(F)cc1
inactive: [16] 110 % of control | [12] 91 % of control | [13] 86 % of control

O=C(Nc1ccccc1F)C(c1ccccc1)c1ccccc1
inactive: [17] 101 % of control | [16] 95 % of control | [12] 95 % of control | [3] 86 % of control

Nc1cc(N)cc(C(=O)c2ccccc2)c1
inactive: [13] 93 % of control | [14] 97 % of control | [15] 93 % of control

N#CNN=Nc1cc(Cl)c(Cl)c(Cl)c1
inactive: [18] 120 % of control | [19] 111 % of control

CN(C)c1ccc(C=Nc2ccc3c(c2)Cc2ccccc2-3)cc1
inactive: [1] 106 % of control | [3] 93 % of control | [5] 90 % of control

Nc1ncn(C2CC(O)C(CO)O2)c(=O)n1 (stereo not given)
inactive: dose: 0.01 mg/kg/injection, schedule: Q01DX009 (ip), vehicle: Klucel (hydroxypropylcellulose) (HPC) 98 % of control | dose: 0.03 mg/kg/injection, schedule: Q01DX009 (ip), vehicle: Klucel (hydroxypropylcellulose) (HPC) 109 % of control | dose: 0.05 mg/kg/injection, schedule: Q01DX009 (ip), vehicle: Klucel (hydroxypropylcellulose) (HPC) 99 % of control | dose: 0.06 mg/kg/injection, schedule: Q01DX009 (ip), vehicle: Klucel (hydroxypropylcellulose) (HPC) 98 % of control | dose: 0.1 mg/kg/injection, schedule: Q01DX009 (ip), vehicle: Klucel (hydroxypropylcellulose) (HPC) 100 % of control | dose: 0.12 mg/kg/injection, schedule: Q01DX009 (ip), vehicle: Klucel (hydroxypropylcellulose) (HPC) 105 % of control | dose: 0.2 mg/kg/injection, schedule: Q01DX009 (ip), vehicle: Klucel (hydroxypropylcellulose) (HPC) 100 % of control | dose: 0.25 mg/kg/injection, schedule: Q01DX009 (ip), vehicle: Klucel (hydroxypropylcellulose) (HPC) 102 % of control | dose: 0.4 mg/kg/injection, schedule: Q01DX009 (ip), vehicle: Klucel (hydroxypropylcellulose) (HPC) 105 % of control | dose: 0.5 mg/kg/injection, schedule: Q01DX009 (ip), vehicle: Klucel (hydroxypropylcellulose) (HPC) 104 % of control | dose: 0.8 mg/kg/injection, schedule: Q01DX009 (ip), vehicle: Klucel (hydroxypropylcellulose) (HPC) 122 % of control

CCCNCCNc1ccc(NCCNCCC)c2c1C(=O)c1ccccc1C2=O
inactive: dose: 16.0 mg/kg/injection, schedule: Q01DX009 (ip), vehicle: acid diluted with saline 112 % of control | dose: 32.0 mg/kg/injection, schedule: Q01DX009 (ip), vehicle: acid diluted with saline 99 % of control

CC(=O)OCCC/C(=C\c1ccc2ccccc2c1)[N+](=O)[O-]
inactive: [6] 100 % of control | [18] 95 % of control | [19] 91 % of control | [20] 95 % of control | [21] 93 % of control

ClC(Cl)(Cl)c1ccc(C(Cl)(Cl)Cl)cc1
inactive: dose: 50.0 mg/kg/injection, schedule: Q04DX003 (ip), vehicle: saline 102 % of control | [2] 95 % of control | [4] 95 % of control

Cc1ccccc1C(=O)NCC(=O)O
inactive: [13] 107 % of control | [14] 99 % of control | [15] 95 % of control

O=C(CC(=O)C(F)(F)C(F)(F)C(F)(F)F)c1csc2ccccc12
inactive: [16] 97 % of control | [12] 100 % of control | [13] 92 % of control

Cc1ccc(C(C)(C)Cl)cc1O
inactive: [17] 117 % of control | [16] 112 % of control | [12] 96 % of control

COc1cc2c(cc1OC)[C@H]1CNC[C@H]1[C@@H](c1ccccc1)C2
inactive: [20] 123 % of control | [21] 114 % of control

C=CC(C(=O)OCC)C(O)CCC (stereo not given)
inactive: [9] 121 % of control | [1] 100 % of control | [3] 101 % of control

S=c1sc2ccccc2n1CN(c1ccccc1)c1ccc2ccccc2c1
inactive: dose: 25.0 mg/kg/injection, schedule: Q04DX003 (ip), vehicle: saline with Tween-80 109 % of control | dose: 50.0 mg/kg/injection, schedule: Q04DX003 (ip), vehicle: saline with Tween-80 106 % of control | dose: 100.0 mg/kg/injection, schedule: Q04DX003 (ip), vehicle: saline with Tween-80 93 % of control and 103 % of control

O=C1C=CC(=O)N1Cc1ccco1
inactive: dose: 65.0 mg/kg/injection, schedule: Q01DX009 (ip), vehicle: saline 108 % of control | [21] 103 % of control and 117 % of control | dose: 150.0 mg/kg/injection, schedule: Q01DX009 (ip), vehicle: saline 114 % of control and 117 % of control | dose: 200.0 mg/kg/injection, schedule: Q01DX009 (ip), vehicle: saline 113 % of control | dose: 400.0 mg/kg/injection, schedule: Q01DX009 (ip), vehicle: saline 113 % of control

CC(O)C(O)C(O)C(/C=N\N=C(/N)[S-])=N/N=C(\N)[S-].[Pt+2] (stereo not given)
inactive: [13] 95 % of control | [14] 102 % of control | [15] 105 % of control

CS(=O)(=O)OCCN(CCOS(C)(=O)=O)c1ccc(C=Nc2ccc(-c3csc(Cc4ccccc4)n3)cc2)c(Cl)c1
active: [9] 153 % of control
inactive: dose: 6.25 mg/kg/injection, schedule: Q01DX009 (ip), vehicle: Klucel (hydroxypropylcellulose) (HPC) 107 % of control and 110 % of control | dose: 12.5 mg/kg/injection, schedule: Q01DX009 (ip), vehicle: Klucel (hydroxypropylcellulose) (HPC) 120 % of control

[Br][Ga]([Br])[Br]
inactive: [18] 101 % of control | [19] 96 % of control | [20] 96 % of control

CC(=O)/C=C/c1ccc(O)cc1
inactive: [1] 113 % of control | [3] 116 % of control | [5] 93 % of control

CN(C)CCC=C1c2ccccc2CCc2ccccc21
inactive: dose: 3.12 mg/kg/injection, schedule: Q01DX009 (ip), vehicle: saline 109 % of control | [6] 117 % of control | [18] 100 % of control | [19] 102 % of control

CC(C)=CCOc1ccc2ccc(=O)oc2c1
inactive: [7] 108 % of control | [8] 105 % of control | [22] 99 % of control

COc1ccc(I)c([N+](=O)[O-])c1
inactive: [9] 93 % of control | [1] 93 % of control | [3] 87 % of control

Cc1cc(Cl)ccc1NC(=O)c1ccccc1C(=O)O
inactive: [1] 96 % of control | [10] 93 % of control | [3] 100 % of control | [11] 96 % of control | dose: 400.0 mg/kg/injection, schedule: Q04DX003 (ip), vehicle: Klucel (hydroxypropylcellulose) (HPC) 106 % of control

O=C1C(=O)c2ccccc2C(O)=C1CCCc1ccc(OCc2ccccc2)cc1
inactive: [7] 101 % of control | [8] 100 % of control | [22] 103 % of control

Cc1cc(C)c(NC(=O)Nc2ccc(Cl)cc2)c(C)c1
inactive: [1] 93 % of control | [3] 93 % of control

O=[N+]([O-])c1cccc(C(O)C=C(C(F)(F)F)C(F)(F)F)c1 (stereo not given)
inactive: [16] 93 % of control | [13] 86 % of control
